Experimental data reported in patent US20240002547A1, “T[…]-TARGETING CONSTRUCTS AND USES THEREOF” (AEBI LTD., priority 2016, published 2024).
Positions of bridges follow the written chain, without caps; N, C: chain ends. No end group written: not given here.

Experiments:
human EGFR = target: T1, human EGFR (Homo sapiens, UniProt P00533); assay: EGFR autophosphorylation ELISA in A431 cells; format: cell-based
T1 construct: human EGFR in human epidermoid carcinoma cell line A431; endogenous in cells; host or cells: A431
Procedure: The effect of several peptides on the phosphorylation levels of human EGFR in human epidermoid carcinoma cell line A431 was assessed by ELISA test. Briefly, exponentially growing A431 cell culture were detaches from the flask with 0.25% trypsin/EDTA solution, and 200 μl of cell suspension were transferred to 96-well plates at the concentration of 2×10^5 cells/ml and grown for about 3 days. Following medium exchange, 50 μl EGF dilutions and EGF+peptides (50 ng/ml and 0.2 mg/ml, respectively) were added. The plate was incubated for 7.5 min at 37° C. EGF-containing medium was removed and the cells were fixed by 150 ul of fixing solution and incubated for 20 min. at room temperature, following which the plate was washed 2 times with triton washing solution. The level of phosphorylates was assessed by incubation with phospho-EGFR (Tyr1045) antibody as a primary antibody and Anti-rabbit IgG as a secondary antibody. […] The normalized percent of inhibition (of the EGFR auto-phosphorylation is presented in FIG. 11 and Table 4. The normalized percent of inhibition is calculated as the fluorescence signal of the test item divided by the fluorescence signal of the control that contains no test item, with the same concentration of EGF.
Efficacy of different concentration of the selected peptide was assessed by ELISA in a similar was as in Example 12. […]

[1] = target: human Epidermal Growth Factor Receptor (EGFR) (Homo sapiens, UniProt P00533); assay: Screening of cyclopeptides binding to human EGFR
Procedure: Using the technique described in WO 2007/010525, a series of new peptides (cyclopeptides) binding to human Epidermal Growth Factor Receptor (EGFR) were generated and tested. After identification of several potential peptide, a few further cycles of optimization were performed.

[2] = In vivo stability of fluorescently marked peptide in blood after tail vein injection; settings: mice
Procedure: The stability of the fluorescently marked peptide E13.3 alone or bound to 8-armed PEG was evaluated in vivo by injecting the compounds to the tail vein of mice. The blood of the animals was analyzed for the presence of the peptide (fluorescence) at different time intervals. It can be clearly seen from the result presented in FIG. 14 that t0.5 of the free peptide is much shorter (about several minutes) than that of the peptides bound to PEG (t0.5 of about 3.5 hours).

[3] = target: T2, eEF2 (Human; Yeast derived) (Homo sapiens, UniProt P13639); assay: ELISA binding of phage-displayed peptides to eEF2 or BSA; settings: M13 phages expressing the peptide; read after 1.5 min and 30 min; BSA negative control
T2 construct: host or cells: yeast
Procedure: Binding of Tox 1 and Tox2 to eEF2 was tested by ELISA using eEF2 or BSA as ligands.
0.25 μg of target proteins, eEF2 (Human; Yeast derived) or BSA (negative control) were applied to several wells of maxisorp plate (NUNC) in 50 μl PBS and incubated over night at 4° C. The solutions were removed, and each well was supplemented with 280 μl blocking solution (BSA 2 mg/ml). The plate was incubated 1 hr at 25° C.
To 1.5 ml tubes 100 μl of blocking solution+10^9 pfu (plaque forming units) of M13 phages that express the following peptides: eEF2-binding: RB, LBR1, TB2 (Tox2), Y02, GW (Tox1), DRB, PY, BW were added. The plate was incubated 1 hr at 25° C. The solution were discarded and the wells were washed 7 times with 280 μl washing solution (Tween 20 0.05%).
Each well was supplemented with 50 μl of HRP/Anti-M13 Monoclonal Conjugate (GE Healthcare) diluted 1:5000. The plate was incubated 1 hr at 25° C. The solutions were discarded and the wells were washed 7 times with 280 μl washing solution (Tween 20 0.05%). Each well was supplemented with 50 μl of TMB (T0440; Sigma).
The plate was photographed using a scanner after incubation time of 1.5 min and 30 min.

eEF2 = target: T3, eEF2 (Homo sapiens, UniProt P13639); assay: in vitro transcription/translation system (HeLa lysate, 1-Step Human Coupled IVT Kit, pCFE-GFP DNA); format: biochemical; settings: peptide 5 μM; 4 hr at 30° C.; versus positive control without peptide and non eEF2-binding control peptide
T3 construct: in vitro transcription/translation system using HeLa Lysate system; host or cells: HeLa lysate (1-Step Human Coupled IVT Kit-DNA)
Procedure: The effect of Tox1 and Tox2 was tested in the in vitro transcription/translation system using HeLa Lysate system 1-Step Human Coupled IVT Kit-DNA (ThermoFisher Scientific). The following peptides were tested: GW (Tox1), DRB RB, TB2 (Tox2), and BW. In addition, a non eEF2-binding control peptide, GR, was also tested.
The IVT Kit components were mixed, and one portion was taken out to serve as a negative control. The rest of the mix was supplemented with pCFE-GFP DNA. This DNA, when transcribed and translated gives a fluorescence protein, GFP. The extent of fluorescence gives a measure of the extent of protein synthesis.
The mix was split into […] aliquots. Each aliquot was supplemented with lml of one concentration of a specific peptide. A positive control was supplemented with lml of PBS. The reaction mixtures were incubated 4 hr at 30° C.
[…] of PBS were added to each reaction mixtures. The mixtures were transferred to a 96 well black ELISA plate, and the fluorescence was measured at ex/em 482/512 nm.

human PD-L1 = human PD-L1 (Homo sapiens, UniProt Q9NZQ7); assay: Screening of cyclopeptides binding to human PD-L1
Chain of human PD-L1 (Q9NZQ7 19-290): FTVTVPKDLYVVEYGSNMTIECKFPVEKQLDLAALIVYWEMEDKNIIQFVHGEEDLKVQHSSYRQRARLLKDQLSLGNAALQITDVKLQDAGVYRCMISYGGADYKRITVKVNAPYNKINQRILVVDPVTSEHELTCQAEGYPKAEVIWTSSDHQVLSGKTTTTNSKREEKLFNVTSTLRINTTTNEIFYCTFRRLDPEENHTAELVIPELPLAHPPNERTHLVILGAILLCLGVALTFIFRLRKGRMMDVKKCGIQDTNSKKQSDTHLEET
Procedure: Using the technique described in WO 2007/010525, a series of new peptides (cyclopeptides) binding to binding to a human PD-L1 were generated and tested. After identification of several potential peptides, a few further cycles of optimization were performed.

A549 = assay: Viability of A549 cells, alamarBlue; format: cell-based, human; settings: all tested concentrations
Procedure: (§1) The anti-cancer activity of E13.3 was assessed using several cancer cell lines (A549—human lung carcinoma cell line and FaDu—human pharyngeal carcinoma cell line). The cell cultures were incubated in the presence or absence of E13.3 (at different concentrations) and tested for viability using alamarBlue reagent. The results are presented on FIG. 15.

NCI-H1650 tumor = assay: Accumulation of fluorescein-labelled E13.3-PEG in kidney, liver and tumor of xenograft mice; format: in vivo
Procedure: E13.3-PEG was labeled with Flourescein and injected IV to Xenograft mice bearing subcutaneous NCI-H1650 tumor (lung cancer). Following anesthesia, kidney, liver and tumor were collected at specific time points and the fluorescence was measured.

FaDu = assay: Viability of FaDu cells, alamarBlue; format: cell-based, human; settings: all tested concentrations
Procedure: as §1

MCF-7 cells = assay: Toxicity of PEG constructs on MCF-7 cells, microscope images after 48 hours; format: cell-based, human
Procedure: (§2) A construct comprising a multi-arm-PEG scaffold bound to E13.3 targeting peptide having the sequence SEQ ID NO: 1 ([…]) and a toxin selected from BIMBH3 (referred also as BIM and having the sequence SEQ ID NO: 5 […]) or a combination of Tox1 and Tox2 was generated. The scaffolds were prepared as described in Example 5 and is denoted as PEG-E13.3-Tox1-Tox2 and PEG-13.3-BIM, accordingly
(§3) A431 cells (human squamous carcinoma express about 100,000 copies of EGFR on each cell) and MCF-7 cells (breast cancer cell expressing about 3,000 copies of EGFR on each cell) were thawed and cultivated to achieve exponentially growing cultures. Cells were collected, counted and seeded at the density of 7,000 cells/well and 5,000 cells/well, respectively, in a 96 well tissue culture plate.
(§4) The plates were incubated until the next day at the following conditions: 37±1° C., humidified, and 5±0.5% CO2/air, to enable cells adherence to the wells.
(§5) The cell viability of A549 cell was tested using Alamar Blue viability assay. At the next day following the seeding, Growth Media was replaced with 200 μl Assay Media that contained 2% FBS and Test Items at different concentrations of the construct (1, 3 and 8 μM), or Vehicle Control (PBS; concentration-0). Plates were incubated at 37±1° C., humidified 5±0.5% CO2/air. […]

A431 cells = assay: Toxicity of PEG constructs on A431 cells, microscope images after 48 hours; format: cell-based, human
Procedure: as §2, §3, §4, §5

[4] = 1, 3 and 8 μM, 48 hours, images

For CHPGDKQEDPNCLQADK [E13.3], the “Normalized Percent of EGFR autophosphorylation inhibition” value (human EGFR; A431, EGF 50 ng/ml, peptide 0.2 mg/ml, 7.5 min at 37° C., phospho-EGFR (Tyr1045)) was 99.4%, the IC50 (human EGFR; Example 12, read-out: calculated IC50 of EGFR autophosphorylation inhibition) was 2 µM and the “affinity to the receptor at its binding site” value [1] was “high affinity”. The t0.5 in blood ([2]; free peptide) was “about several”.
For “Cys-Arg-Arg-Gly-Ser-Arg-Ala-Ser-Gly-Ala-His-Cys (CRRGSRASGAHC; disulfide 1-12) [Tox2]”, the “binding to eEF2 (ELISA signal)” value [3] was “strongest effect” and the “GFP fluorescence (extent of protein synthesis)” value (eEF2) was “highest effect”.
For “Cys-Ser-Ala-Arg-Trp-Gly-Pro-Thr-Met-Pro-Trp-Cys (CSARWGPTMPWC; disulfide 1-12) [Tox1]”, the “GFP fluorescence (extent of protein synthesis)” value (eEF2) was “highest effect”.
With “CysGluGlyLeuProAlaAspTrpAlaAlaAlaCys (CEGLPADWAAAC; also: cyclic, mode not given here) [PD-L1-GR]” the “affinity to the receptor at its binding site” value (human PD-L1) was “high affinity”.
For “E13.3-PEG: E13.3 bound to 8 arm PEG Succinimidyl Carboxymethyl Ester, MW 73,000 (Ac-CHPGDKQEDPNCLQADK; not fully specified; cysteine pairing not given here; also: one amine Dde-protected, site not given here)”, the “viability of cancer cells” value (A549) was “successfully reduce the viability”, the “interaction with and internalization by cancer cells isolated from tumor” value (NCI-H1650 tumor; 1 hour and 24 hour after IV injection) was “most of the cancer cells interact with E13.3-PEG and internalize the fluorescent peptide” and the “fluorescence in kidney and liver” value (NCI-H1650 tumor; IV, NCI-H1650 xenograft mice) was “fast increase in the fluorescence in kidney and liver with a typical elimination curve afterwards”. For the same substance, the “fluorescence in tumor (cancer cells)” value (NCI-H1650 tumor; IV, NCI-H1650 xenograft mice) was “accumulated in the cancer cells”, the “viability of cancer cells” value (FaDu) was “successfully reduce the viability” and the t0.5 in blood ([2]; bound to 8-armed PEG) was “about 3.5 hours”.
With “PEG-E13.3-Tox1-Tox2: multi-arm-PEG scaffold bound to E13.3 targeting peptide and a combination of Tox1 and Tox2 (peptide 1 Ac-CHPGDKQEDPNCLQADK; peptide 2 CSARWGPTMPWC; peptide 3 CRRGSRASGAHC; not fully specified (bridges); cysteine pairing not given here; also: multi-arm PEG scaffold carrying E13.3, Tox1 and Tox2)” the “effect on cell aggregates / proportion of dead cells” value (MCF-7 cells; [4]) was “proportion of dead cells increased”, the “potency of cell death compared with the BIM construct” value (MCF-7 cells; images at 48 hours) was “more potent” and the “effect on cell aggregates / proportion of dead cells” value (A431 cells; [4]) was “proportion of dead cells increased”. The “potency of cell death compared with the BIM construct” value (A431 cells; images at 48 hours) was “more potent”.
